From patent US11786543B2, “Compositions comprising decitabine and tetrahydrouridine and uses thereof” (The Board of Trustees of the University of Illinois, priority 2008, dated 2023) come the findings set out here.

Several values for one entry are separate records, joined by “and”; a condition that tells them apart may be missing. Equal values may be shown once.

Data set [1] relates to normal hematopoietic precursors. The format is cell-based. Particulars: DAC 0.5 μM, equimolar Ara-C, clinically relevant levels of HU; measured D6.
Procedure: Measurement was performed on D6.
Normal CD34 cells were isolated from cord blood. […] Equimolar levels of AraC were used as positive controls. […] Twenty-four hours after DAC or AraC exposure, apoptosis was measured by flow-cytometric assessment for annexin staining. Double annexin/7-aminoactinomycin D (7AAD)-positive cells represent late apoptosis/necrosis. […] Results are expressed as a percentage of vehicle treated controls.
(§1) AraC, a cytidine analog that terminates DNA chain synthesis, was used as a positive control for DNA damage and apoptosis induction.
The subject of data set [2] is normal CD34+ cells. As to the kind of experiment: Cell counts, morphology and colony formation. Particulars: non-DNA-damaging DNMTI-depleting decitabine; Ara-C equimolar. It counts as cell-based. An excerpt:
The Kasumi-1 cell-line is derived from a patient with AMLI-ETO leukemia and represents a late-stage model of transformation and malignant evolution.

The subject of data set [3] is normal CD34+ hematopoietic cells. The data set is described as follows: DNA damage (Fast Micromethod for DNA scission, γH2AX flow cytometry). The settings on record: decitabine 0.5 μM D1,3,5; Ara-C 0.5 μM D1,3,5; hydroxyurea 500 μM D1-5; measured D6. (Flow cytometry measures light scatter and fluorescence of single cells or particles in a stream.)
Procedure: Measurement was performed on D6.
Dark histogram=isotype control for flow-cytometricanalysis. Light histograms show the γH2AX staining for untreated control cells. Measurement was performed on D6.
Normal CD34 cells were isolated from cord blood. DAC 0.005 μM was added once daily on days 1-4 and DNMT1 was quantified by Western blot on day 5. […] Twenty-four hours after DAC or AraC exposure, DNA damage was measured by flow-cytometric assessment for phosphorylation of histone H2AX (γH2AX; B) or the Fast Micromethod for DNA scission (FIG. 19C). Equimolar levels of AraC were used as positive controls. Gray histogram is the isotype control. […] Twenty-four hours after DAC or AraC exposure, apoptosis was measured by flow-cytometric assessment for annexin staining. Double annexin/7-aminoactinomycin D (7AAD)-positive cells represent late apoptosis/necrosis. […] Results are expressed as a percentage of vehicle treated controls.
as §1
In data set [4] the test system is baboons. As to the kind of experiment: Pharmacodynamic responses (HbF %, neutrophil counts) to decitabine with or without THU in baboons. It counts as in vivo, baboon. Also on record: ANC nadir: unit not given here. How it is done:
Fetal hemoglobin expression, HbF %, pre and post treatment with the indicated dose of decitabine. […] Oral treatment was with decitabine or a slightly modified decitabine (decitabine-mesylate—Dac-m).
Decitabine was administered at the doses indicated in two consecutive blocks of 5 days each. THU at the indicated doses was administered 60 minutes before each decitabine dose.

The nature of data set [5]: Decitabine plasma pharmacokinetics in baboons (LC/MS). How it is done: Baboons were treated with IV decitabine 0.5 mg/kg (2 animals), SQ decitabine 0.5 mg/kg (2 animals), or oral decitabine 10 mg/kg (2 animals).
Decitabine was administered to two baboons IV (0.5 mg/kg), SQ (0.5 mg/kg) and orally (10 mg/kg). Blood was collected at 7 time-points and plasma concentrations were determined using an LC/MS/MS method adapted from a previously published method 26.
AUClast refers to the area under a plotted plasma concentration-time curve (not shown) at the last recorded timepoint.
Two baboons (PA7484 and PA7470) were administered oral THU 20 mg/kg (400 mg/m^2) 60 minutes prior to oral decitabine 5 mg/kg, or decitabine alone. After a wash-out period of greater than 2 weeks, these same two animals were administered oral THU 2 mg/kg […] 60 minutes prior to oral decitabine 5 mg/kg, or oral decitabine alone. […] Decitabine levels were measured at various timepoints by LC-MS. […]
To compare the effect of different routes of administration on the DAC concentration-time profile, plasma DAC levels were compared after IV or SC administration versus oral administration to the same animals (washout period of ≥2 weeks between drug administrations to the same animal). […] Blood was collected for up to 7 time-points after administration and plasma concentrations were determined using LC/MSMS. […]

For data set [6], the system named is Reno-1 renal cell cancer xenograft. Particulars: mouse, in vivo. The method, then:
In an effort to apply the proposed formulation and regimen to treat different cancer histologies, a renal cell cancer cell-line (Reno-1) was developed from a surgical sample of renal cancer and used in a xeno-transplantation experiment. […] The percentage of necrosis in each tissue section was evaluated in a blinded fashion.

[7] abbreviates: Oral 9.35 mg/kg/d, individual baboons, 9.35 mg/kg/day.
Where [8] appears, read: Oral 18.7 mg/kg/d, individual baboons.

On to `Nc1ccn([C@@H]2O[C@H](CO)[C@@H](O)[C@@H]2O)c(=O)n1` [Ara-C, cytosine arabinoside], for which the “apoptosis (annexin V-FITC and 7AAD double staining)” value in data set [1] is “cause significant apoptosis and cell-death”. Moreover, in data set [2], the cell counts entry was “more devastating to normal cells”. Besides, in data set [3], the “DNA damage (Fast Micro-method for DNA scission, γH2AX)” value is listed as “cause significant DNA damage”.
Consider `CS(=O)(=O)O.Nc1ncn([C@H]2C[C@H](O)[C@@H](CO)O2)c(=O)n1` [Dac-m, decitabine-mesylate], for which the ANC nadir is 1417 in data set [4] (Oral 4.1 mg/kg/d, baboon 7001); 481 in data set [4] (Oral 6.7 mg/kg/d, baboon 7002); 463 and 2000 in data set [4] (setting [7]); 1659 in data set [4] (setting [8]). Moreover, the Post-HbF % in data set [4] (Oral 4.1 mg/kg/d, baboon 7001) was 13.1%; in data set [4] (Oral 6.7 mg/kg/d, baboon 7002), 31.4%; in data set [4] (setting [7]), 62.3% and 40.5%; in data set [4] (setting [8]), 67.8%.
For the compound `O=C1NC(O)CCN1[C@@H]1O[C@H](CO)[C@@H](O)[C@H]1O` (some centres unmarked) [THU, Tetrahydrouridine], the “DAC concentrations, THU 400 mg/m^2 versus THU 40 mg/m^2” value in data set [5] (60 minutes before DAC 100 mg/m^2, PA7470 and PA7484) is listed as “produced higher DAC concentrations”. Also, in data set [5] (in vivo), the “DAC concentrations, THU 60 minutes before versus simultaneously or 30 minutes before DAC” value is “produced higher DAC concentrations”.
“avastin: standard agent used to treat renal cancer”: in data set [6], the “sensitivity of the tumor to standard agents” value is recorded as “relatively resistant”.
